The values that follow come from US20100160369A1, “S1P1 Agonists and Methods of Making And Using” (EXELIXIS, INC., priority 2008, published 2010).

Where only a bound is given, the exact number is not on record here.

For assay [1], the target named is T1, S1P1 (Homo sapiens, UniProt P21453). Kind of assay: DELFIA GTP-Eu Binding Assay (Assay 3b). More on the design: purchased Lonza; host or cells: CHO cell membranes. The class given is biochemical. The protocol: The DELFIA GTP-Eu binding assay (PerkinElmer) is a time-resolved fluorometric assay based on GDP-GTP exchange. CHO cell membranes (Lonza) expressing human S1P1 were incubated in 96-well filter plates (Pall, East Hills, N.Y.) in a final volume of 100 μL/well buffer containing 40 μg/mL membrane, 50 mM HEPES, 2 μM GDP, 10 mM MgCl2, 100 mM NaCl, 500 μg/mL Saponin and test compound. Test compounds were tested at maximum concentrations of 10 μM. Compounds were diluted (10 concentration points, 3-fold each) and added to the assay plate at a 1% final DMSO concentration. For each compound, there were duplicate assay plates and each assay plate had duplicate wells per concentration point. The plates were incubated for 30 min at room temperature on a plate shaker at low speed. GTP-Eu was added to each well (10 μL, 10 nM final concentration) and the plate was incubated for an additional 30 min with slow shaking The wells were washed with ice cold GTP washing buffer (3×150 μL) using a vacuum manifold and the assay plates read in an EnVision plate reader (PerkinElmer) at an excitation wavelength of 340 nm and an emission wavelength of 615 nm. To determine agonist activity, percent activity was calculated as [(test compound−background)/(positive control−background)*100], where background is the fluorescence in absence of compound and the positive control is the fluorescence from membranes incubated with 1 μM S1P (Avanti). The percent activities were plotted against compound concentration to determine IC50 or EC50 using XLFit (IDBS).
Assay 1 is the CNG cAMP Assay as described in Biological Example 1. Assay 2a and 2b are the Tango™ β-arrestin Recruitment Assay in HEK293 and U2OS cells, respectively, as described in Biological Example 2. Assay 3a is the hS1P1R GTPγS Binding Assay as described in Biological Example 3. Assay 3b is the GTP-Eu Binding Assay as described in Biological Example 3. EC50's were measured unless otherwise noted. […] In the table, “nt” means the Compound was not tested and “no” means the compound was tested but had no measurable activity under the assay conditions employed.
Target sequence in this assay (P21453 whole entry): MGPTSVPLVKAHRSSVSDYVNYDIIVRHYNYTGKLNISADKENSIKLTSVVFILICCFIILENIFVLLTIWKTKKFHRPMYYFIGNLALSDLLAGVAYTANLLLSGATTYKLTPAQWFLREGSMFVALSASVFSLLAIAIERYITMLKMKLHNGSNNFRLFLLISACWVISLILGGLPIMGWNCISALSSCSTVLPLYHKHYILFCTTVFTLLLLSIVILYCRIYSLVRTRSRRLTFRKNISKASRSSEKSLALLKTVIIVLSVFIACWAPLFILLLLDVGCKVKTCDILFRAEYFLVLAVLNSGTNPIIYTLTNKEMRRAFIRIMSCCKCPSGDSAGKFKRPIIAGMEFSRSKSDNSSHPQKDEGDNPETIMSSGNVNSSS

In assay [2] the target is T1, S1P1. Briefly: CNG cAMP Assay (Assay 1). The assay is classed as cell-based. More on the design: host or cells: HEK293 cells expressing the CNG channel. The note with it: read-out: Assay 1 EC50. In short, it runs like this:
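HEK293 cells expressing CNG channel and S1P1, membrane-potential dye loaded; compounds (top 10 μM, 10-point 3-fold, 1.8% DMSO) added with 25 μM Ro 20-1724, 500 nM NECA and 10 nM S1P for 90 min. T90/T0 fluorescence (Ex 350/Em 590 nm) normalised to NECA-alone vs DMSO; EC50 fitted.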
Target sequence in this assay (P21453 whole entry): as above

Assay [3] deals with T1, S1P1. Kind of assay: Tango β-arrestin Recruitment Assay in HEK293 cells (Assay 2a). Also noted: linker with TEV protease (N1a) cleavage site (C); host or cells: HEK293, transiently transfected. The note with it: Tango β-arrestin Recruitment Assay, read-out: Assay 2a EC50. The assay is classed as cell-based. An outline of the steps: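 HEK293 cells transiently expressing S1P1 (TEV-cleavable tTA fusion) with β-arrestin2–TEV; compounds up to 10 μM, 10-point 3-fold, 1% DMSO, 30 min then 16–18 h at 37 °C. Luciferase luminescence normalised to 5 μM S1P as 100% and DMSO as background; EC50 from percent-activity curves.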
For orientation: Arrestin recruitment assays detect the binding of arrestin to an activated receptor.
Target sequence in this assay (P21453 whole entry): as above
Target sequence in this assay (P32121 whole entry partner): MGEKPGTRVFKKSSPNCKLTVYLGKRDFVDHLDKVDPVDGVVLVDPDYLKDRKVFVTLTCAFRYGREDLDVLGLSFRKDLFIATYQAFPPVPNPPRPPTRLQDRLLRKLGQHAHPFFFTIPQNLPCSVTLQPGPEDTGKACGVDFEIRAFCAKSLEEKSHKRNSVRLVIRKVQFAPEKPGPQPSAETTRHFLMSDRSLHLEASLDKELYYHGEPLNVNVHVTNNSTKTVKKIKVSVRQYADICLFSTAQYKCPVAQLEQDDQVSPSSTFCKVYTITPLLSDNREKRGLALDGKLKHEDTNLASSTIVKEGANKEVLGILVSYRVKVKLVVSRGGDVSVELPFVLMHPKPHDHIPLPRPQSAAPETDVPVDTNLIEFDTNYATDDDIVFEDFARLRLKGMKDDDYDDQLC

In assay [4] the target is T1, S1P1. Briefly: Tango β-arrestin Recruitment Assay in U2OS cells (Assay 2b). The assay is classed as cell-based. Also noted: linker with TEV protease (N1a) cleavage site (C). The note with it: Tango β-arrestin Recruitment Assay, read-out: Assay 2b EC50. In short, it runs like this: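 U2OS cells expressing S1P1 and reporter, serum-starved 48 h, treated with compound (10-point 3-fold series, top 1 μM, 1% DMSO) overnight at 37 °C; β-lactamase substrate added 2 h at room temperature. F460/F530 ratio normalised to 1 μM S1P (100%) and DMSO; EC50 from concentration-response.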
Target sequence in this assay (P21453 whole entry): as the sequence (P21453 whole entry) above
Target sequence in this assay (P32121 whole entry partner): as the sequence (P32121 whole entry partner) above

Setting [5] is: relative EC50 was measured (footnote 1), read-out: Assay 3b Relative EC50.
Setting [6] is: footnote 1: Relative EC50 was measured, read-out: Assay 3b Relative EC50.

A word on the EC50: it is the midpoint of the concentration-response curve. Turning to `COc1cc(Cl)c2nc(-c3nc(-c4cc(F)c(CCC(=O)O)cc4Cl)no3)cn2c1` [Entry 61], the EC50 on S1P1 [1] (read-out: Assay 3b EC50) is 100 to 500 nM; at S1P1 [2], ≤ 100 nM; at S1P1 [3], ≤ 100 nM.
Turning to `O=C(O)/C=C/c1cc(Cl)c(-c2noc(-c3cn4cc(C(F)(F)F)cc(Cl)c4n3)n2)cc1F` [Entry 63], the EC50 on S1P1 [1] (read-out: Assay 3b EC50) was 100 to 500 nM; on S1P1 [2], ≤ 100 nM; on S1P1 [3] it was ≤ 100 nM.
For `Cc1cc(C2CC2C(=O)O)ccc1-c1noc(-c2cn3cc(C(F)(F)F)cc(Cl)c3n2)n1` (centres unmarked) [Entry 69], the 50% effective concentration (EC50) on S1P1 [1] (setting [5]) is 1000 to 5000 nM; on S1P1 [2], ≤ 100 nM; at S1P1 [3] it was 100 to 500 nM.
The matching figures for `O=C(O)C1CC1c1ccc(-c2noc(-c3cn4cc(C(F)(F)F)cc(Cl)c4n3)n2)c(Cl)c1` (centres unmarked) [Example 42, 2-(3-chloro-4-{5-[8-chloro-6-(trifluoromethyl)imidazo[1,2-a]pyridin-2-yl]-1,2,4-oxadiazol-3-yl}phenyl)cyclopropanecarboxylic acid]: 1000 to 5000 nM, ≤ 100 nM and 100 to 500 nM.
Turning to `O=C(O)C1CC1c1cc(Cl)c(-c2noc(-c3cn4cc(C(F)(F)F)cc(Cl)c4n3)n2)cc1F` (centres unmarked) [Example 85, 2-(5-chloro-4-{5-[8-chloro-6-(trifluoromethyl)imidazo[1,2-a]pyridin-2-yl]-1,2,4-oxadiazol-3-yl}-2-fluorophenyl)cyclopropanecarboxylic acid], the EC50 is 100 to 500 nM on S1P1 [1] (read-out: Assay 3b EC50), ≤ 100 nM on S1P1 [2] and ≤ 100 nM on S1P1 [3].
`CS(=O)(=O)Nc1ccc(-c2noc(-c3cn4cc(C(F)(F)F)cc(Cl)c4n3)n2)c(Cl)c1` [Example 94, N-(3-chloro-4-{5-[8-chloro-6-(trifluoromethyl)imidazo[1,2-a]pyridin-2-yl]-1,2,4-oxadiazol-3-yl}phenyl)methanesulfonamide]: the results for the EC50 at S1P1 [1] (read-out: Assay 3b EC50), at S1P1 [2] and on S1P1 [3] were 500 to 1000 nM, ≤ 100 nM and 100 to 500 nM, respectively.
In the case of `O=C(O)CCc1ccc(-c2nnc(-c3cn4cc(C(F)(F)F)cc(Cl)c4n3)o2)c(Cl)c1` [Example 99], the EC50 on S1P1 [1] (setting [5]) was 1000 to 5000 nM; at S1P1 [2] it was ≤ 100 nM; on S1P1 [3], 100 to 500 nM.
On the same counts, the results for `O=C(O)C1CN(Cc2ccc(-c3noc(-c4cn5cc(C(F)(F)F)cc(Cl)c5n4)n3)c(Cl)c2)C1` [Example 124, 1-[(3-chloro-4-{5-[8-chloro-6-(trifluoromethyl)imidazo[1,2-a]pyridin-2-yl]-1,2,4-oxadiazol-3-yl}phenyl)methyl]azetidine-3-carboxylic acid] are 1000 to 5000 nM, 100 to 500 nM and 100 to 500 nM.
`O=C(O)CCNCc1ccc(-c2noc(-c3cn4cc(C(F)(F)F)cc(Cl)c4n3)n2)c(Cl)c1` [Example 130, N-[(3-chloro-4-{5-[8-chloro-6-(trifluoromethyl)imidazo[1,2-a]pyridin-2-yl]-1,2,4-oxadiazol-3-yl}phenyl)methyl]-beta-alanine]: the figures for the EC50 on S1P1 [1] (read-out: Assay 3b EC50), on S1P1 [2] and at S1P1 [3] were 500 to 1000 nM, ≤ 100 nM and 100 to 500 nM, respectively.
The matching figures for `O=C(O)CCNCc1ccc(-c2noc(-c3cn4cc(C(F)(F)F)cc(Br)c4n3)n2)c(Cl)c1` [Example 131, N-[(4-{5-[8-bromo-6-(trifluoromethyl)imidazo[1,2-a]pyridin-2-yl]-1,2,4-oxadiazol-3-yl}-3-chlorophenyl)methyl]-beta-alanine]: 1000 to 5000 nM, ≤ 100 nM and 100 to 500 nM.
`O=C(O)C1CN(Cc2ccc(-c3noc(-c4cn5cc(C(F)(F)F)cc(Br)c5n4)n3)c(Cl)c2)C1` [Example 132, 1-[(4-{5-[8-bromo-6-(trifluoromethyl)imidazo[1,2-a]pyridin-2-yl]-1,2,4-oxadiazol-3-yl}-3-chlorophenyl)methyl]azetidine-3-carboxylic acid]: the EC50 was 1000 to 5000 nM at S1P1 [1] (read-out: Assay 3b EC50), ≤ 100 nM at S1P1 [2] and 100 to 500 nM at S1P1 [3].
`O=C(O)CC(O)c1ccc(-c2noc(-c3cn4cc(C(F)(F)F)cc(Cl)c4n3)n2)c(Cl)c1` (centres unmarked) [Example 139, 3-(3-chloro-4-{5-[8-chloro-6-(trifluoromethyl)imidazo[1,2-a]pyridin-2-yl]-1,2,4-oxadiazol-3-yl}phenyl)-3-hydroxypropanoic acid]: the EC50 at S1P1 [1] (setting [6]) is 100 to 500 nM; on S1P1 [2], ≤ 100 nM; at S1P1 [3], ≤ 100 nM.
As to `CC(C)Cc1cc(Cl)c2nc(-c3nc(-c4cc(F)c(CCC(=O)O)cc4Cl)no3)cn2c1` [Example 149, 3-(5-chloro-4-{5-[8-chloro-6-(2-methylpropyl)imidazo[1,2-a]pyridin-2-yl]-1,2,4-oxadiazol-3-yl}-2-fluorophenyl)propanoic acid], the EC50 at S1P1 [1] (setting [6]), on S1P1 [2] and at S1P1 [3] was ≤ 100 nM throughout.
For the molecule `Cc1cc(C(C)CC(=O)O)ccc1-c1noc(-c2cn3cc(C(F)(F)F)cc(Br)c3n2)n1` (centres unmarked) [Example 153, 3-(4-{5-[8-bromo-6-(trifluoromethyl)imidazo[1,2-a]pyridin-2-yl]-1,2,4-oxadiazol-3-yl}-3-methylphenyl)butanoic acid], the EC50 on S1P1 [1] (setting [6]) was 500 to 1000 nM; on S1P1 [2], ≤ 100 nM; on S1P1 [3], 100 to 500 nM.
For `CC(CC(=O)O)c1ccc(-c2noc(-c3cn4cc(C(F)(F)F)cc(Cl)c4n3)n2)c(Cl)c1` (centres unmarked) [Example 172, 3-(3-chloro-4-{5-[8-chloro-6-(trifluoromethyl)imidazo[1,2-a]pyridin-2-yl]-1,2,4-oxadiazol-3-yl}phenyl)butanoic acid], the EC50 on S1P1 [1] (read-out: Assay 3b EC50) was 1000 to 5000 nM; at S1P1 [2], ≤ 100 nM; at S1P1 [3], 100 to 500 nM.
For `NCC(O)COc1cc(Cl)c(-c2noc(-c3cn4cc(C(F)(F)F)cc(Cl)c4n3)n2)cc1Cl` (centres unmarked) [Example 226, 1-amino-3-[(2,5-dichloro-4-{5-[8-chloro-6-(trifluoromethyl)imidazo[1,2-a]pyridin-2-yl]-1,2,4-oxadiazol-3-yl}phenyl)oxy]propan-2-ol], the figures for the EC50 at S1P1 [1] (read-out: Assay 3b EC50), at S1P1 [2] and on S1P1 [3] were 500 to 1000 nM, ≤ 100 nM and ≤ 100 nM, respectively.
As to `O=C(O)CCc1cc(Cl)c(-c2nc(-c3cn4cc(C(F)(F)F)cc(Br)c4n3)no2)cc1F` [Example 238, 3-(4-{3-[8-bromo-6-(trifluoromethyl)imidazo[1,2-a]pyridin-2-yl]-1,2,4-oxadiazol-5-yl}-5-chloro-2-fluorophenyl)propanoic acid], the EC50 at S1P1 [1] (read-out: Assay 3b EC50) is 100 to 500 nM; on S1P1 [2], ≤ 100 nM; at S1P1 [3] it was ≤ 100 nM.
Regarding `CS(=O)(=O)Nc1ccc(-c2nnc(-c3cn4cc(C(F)(F)F)cc(Cl)c4n3)s2)c(Cl)c1` [Example 239, N-(3-chloro-4-{5-[8-chloro-6-(trifluoromethyl)imidazo[1,2-a]pyridin-2-yl]-1,3,4-thiadiazol-2-yl}phenyl)methanesulfonamide], the EC50 on S1P1 [4] was ≤ 100 nM; on S1P1 [1] (read-out: Assay 3b EC50), 100 to 500 nM; on S1P1 [2] it was ≤ 100 nM; on S1P1 [3], ≤ 100 nM.
`NCCOc1ccc(-c2noc(-c3cn4cc(C(F)(F)F)cc(Cl)c4n3)n2)c(Cl)c1` [Example 257, 2-[(3-chloro-4-{5-[8-chloro-6-(trifluoromethyl)imidazo[1,2-a]pyridin-2-yl]-1,2,4-oxadiazol-3-yl}phenyl)oxy]ethanamine]: the EC50 at S1P1 [4] is 100 to 500 nM; at S1P1 [1] (read-out: Assay 3b EC50) it was 100 to 500 nM; at S1P1 [2], ≤ 100 nM; on S1P1 [3], ≤ 100 nM.
